According to patent publication US9908868B2, “Isoindolinone compounds as GPR119 modulators for the treatment of diabetes, obesity, dyslipidemia and related disorders” (SANOFI, priority 2014, dated 2018):

Biological target: T1, human GPR119 (Homo sapiens, UniProt Q8TDV5)
T1 construct: expressed in transfected cells
T1 sequence (Q8TDV5 1-335): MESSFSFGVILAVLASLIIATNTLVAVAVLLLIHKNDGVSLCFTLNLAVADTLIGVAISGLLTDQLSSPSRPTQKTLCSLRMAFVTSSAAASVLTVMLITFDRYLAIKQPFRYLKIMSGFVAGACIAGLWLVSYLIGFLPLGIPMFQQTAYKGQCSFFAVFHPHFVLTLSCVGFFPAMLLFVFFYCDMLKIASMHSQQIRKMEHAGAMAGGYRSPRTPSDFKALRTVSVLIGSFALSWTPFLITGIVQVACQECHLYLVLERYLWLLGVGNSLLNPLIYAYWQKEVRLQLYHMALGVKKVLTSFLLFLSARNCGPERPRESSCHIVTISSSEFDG
Assay: Functional cellular assay measuring GPR119-mediated cAMP release (HTRF) in HEK-293 cells stably expressing recombinant human GPR119
Assay type: cell-based
Details: cAMP response, cell line expressing human GPR119, 30 minutes at room temperature
Procedure, shortened: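 HEK-293 cells stably expressing recombinant human GPR119, suspended at 400000 cells/mL in HBSS/20 mM HEPES/0.1% BSA/2 mM IBMX, exposed to compound for 30 minutes at room temperature. cAMP detected by HTRF (665/620 nm ratio) after 1 h with reagents in lysis buffer. EC50 taken as concentration giving 50% of maximal activation.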

SMILES | EC50
CN(C)C(=O)CN1Cc2ncc(N3CC[C@@H](Oc4ccc(OCC(F)(F)F)nc4)C3=O)cc2C1=O [Example 1-49, N,N-dimethyl-2-[5-oxo-3-[(3R)-2-oxo-3-[[6-(2,2,2-trifluoroethoxy)-3-pyridyl]oxy]pyrrolidin-1-yl]-7H-pyrrolo[3,4-b]pyridin-6-yl]acetamide] | 106 nM
CSCN1Cc2ccc(N3CC[C@@H](Oc4ccc(OCC5CC5)nc4)C3=O)cc2C1=O [Example 1-51, 6-[(3R)-3-[[6-(cyclopropylmethoxy)-3-pyridyl]oxy]-2-oxo-pyrrolidin-1-yl]-2-(methylsulfanylmethyl)isoindolin-1-one] | 57 nM
CS(=O)(=O)CN1Cc2ccc(N3CC[C@@H](Oc4ccc(Oc5ccc(F)cc5)nc4)C3=O)cc2C1=O [Example 1-53, 6-[(3R)-3-[[6-(4-fluorophenoxy)-3-pyridyl]oxy]-2-oxo-pyrrolidin-1-yl]-2-(methylsulfonylmethyl)isoindolin-1-one] | 98 nM
Cc1cc(O[C@@H]2CCN(c3ccc4c(c3)C(=O)N(CC(=O)N(C)C)C4)C2=O)cnc1OCC1CC1 [Example 2-07, 2-[6-[(3R)-3-[[6-(cyclopropylmethoxy)-5-methyl-3-pyridyl]oxy]-2-oxo-pyrrolidin-1-yl]-1-oxo-isoindolin-2-yl]-N,N-dimethyl-acetamide] | 115 nM
NC(=O)CN1Cc2ccc(N3CC[C@@H](Oc4ccc(-c5nccs5)cc4)C3=O)cc2C1=O [Example 2-51, 2-[1-oxo-6-[(3R)-2-oxo-3-(4-thiazol-2-ylphenoxy)pyrrolidin-1-yl]isoindolin-2-yl]acetamide] | 126 nM
CN(C)C(=O)CN1Cc2ccc(N3CC[C@@H](Oc4ccc(OC5CC5)nc4)C3=O)cc2C1=O [Example 1-37, 2-[6-[(3R)-3-[[6-(cyclopropoxy)-3-pyridyl]oxy]-2-oxo-pyrrolidin-1-yl]-1-oxo-isoindolin-2-yl]-N,N-dimethyl-acetamide] | 1040 nM
CN(C)C(=O)c1nc2ccc(N3CC[C@@H](Oc4ccc(OCC5CC5)nc4)C3=O)cc2c(=O)n1C [Example 1-43, 6-[(3R)-3-[[6-(cyclopropylmethoxy)-3-pyridyl]oxy]-2-oxo-pyrrolidin-1-yl]-N,N,3-trimethyl-4-oxo-quinazoline-2-carboxamide] | 449 nM
CS(=O)(=O)CN1Cc2c(F)cc(N3CC[C@@H](Oc4ccc(OCC5CC5)nc4)C3=O)cc2C1=O [Example 1-17, 6-[(3R)-3-[[6-(cyclopropylmethoxy)-3-pyridyl]oxy]-2-oxo-pyrrolidin-1-yl]-4-fluoro-2-(methylsulfonylmethyl)isoindolin-1-one] | 30 nM
COC(=O)C(C)N1Cc2ccc(N3CC[C@@H](Oc4ccc(OCC5CC5)nc4)C3=O)cc2C1=O (stereo partly drawn) [Example 1-04, methyl 2-[6-[(3R)-3-[[6-(cyclopropylmethoxy)-3-pyridyl]oxy]-2-oxo-pyrrolidin-1-yl]-1-oxo-isoindolin-2-yl]propanoate] | 540 nM
C[S+]([O-])CN1Cc2ncc(N3CC[C@@H](Oc4ccc(Oc5ccc(F)cc5)nc4)C3=O)cc2C1=O (stereo partly drawn) [Example 1-55, 3-[(3R)-3-[[6-(4-fluorophenoxy)-3-pyridyl]oxy]-2-oxo-pyrrolidin-1-yl]-6-(methylsulfinylmethyl)-7H-pyrrolo[3,4-b]pyridin-5-one] | 106 nM
C[S+]([O-])CN1Cc2ccc(N3CC[C@@H](Oc4ccc(C(=O)C5CC5)nc4)C3=O)cc2C1=O (stereo partly drawn) [Example 1-58, 6-[(3R)-3-[[6-(cyclopropanecarbonyl)-3-pyridyl]oxy]-2-oxo-pyrrolidin-1-yl]-2-(methylsulfinylmethyl)isoindolin-1-one] | 680 nM
CS(=O)(=O)CN1Cc2ncc(N3CC[C@@H](Oc4ccc(Oc5ccc(F)cc5)nc4)C3=O)cc2C1=O [Example 1-66, 3-[(3R)-3-[[6-(4-fluorophenoxy)-3-pyridyl]oxy]-2-oxo-pyrrolidin-1-yl]-6-(methylsulfonylmethyl)-7H-pyrrolo[3,4-b]pyridin-5-one] | 163 nM
CC(C)Sc1ccc(O[C@@H]2CCN(c3ccc4c(c3)C(=O)N(CC(=O)N(C)C)C4)C2=O)cn1 [Example 1-09, 2-[6-[(3R)-3-[(6-isopropylsulfanyl-3-pyridyl)oxy]-2-oxo-pyrrolidin-1-yl]-1-oxo-isoindolin-2-yl]-N,N-dimethyl-acetamide] | 163 nM
CN(C)C(=O)CN1Cc2ccc(N3CC[C@@H](Oc4ccc(OC(F)(F)F)cc4)C3=O)cc2C1=O [Example 2-01, N,N-dimethyl-2-[1-oxo-6-[(3R)-2-oxo-3-[4-(trifluoromethoxy)phenoxy]pyrrolidin-1-yl]isoindolin-2-yl]acetamide] | 106 nM
CCCCC(=O)c1ccc(O[C@@H]2CCN(c3ccc4c(c3)C(=O)N(CC(N)=O)C4)C2=O)cc1 [Example 2-54, 2-[1-oxo-6-[(3R)-2-oxo-3-(4-pentanoylphenoxy)pyrrolidin-1-yl]isoindolin-2-yl]acetamide] | 38 nM
CS(=O)(=O)CN1Cc2ccc(N3CC[C@@H](Oc4ccc(C(=O)C5CC5)nc4)C3=O)cc2C1=O [Example 1-59, 6-[(3R)-3-[[6-(cyclopropanecarbonyl)-3-pyridyl]oxy]-2-oxo-pyrrolidin-1-yl]-2-(methylsulfonylmethyl)isoindolin-1-one] | 451 nM
NC(=O)CN1Cc2ccc(N3CC[C@@H](Oc4ccc(C(=O)C5CC5)nc4)C3=O)cc2C1=O [Example 2-52, 2-[6-[(3R)-3-[[6-(cyclopropanecarbonyl)-3-pyridyl]oxy]-2-oxo-pyrrolidin-1-yl]-1-oxo-isoindolin-2-yl]acetamide] | 207 nM
CC1(C(=O)c2ccc(O[C@@H]3CCN(c4ccc5c(c4)C(=O)N(CC(N)=O)C5)C3=O)cc2)CC1 [Example 2-55, 2-[6-[(3R)-3-[4-(1-methylcyclopropanecarbonyl)phenoxy]-2-oxo-pyrrolidin-1-yl]-1-oxo-isoindolin-2-yl]acetamide] | 207 nM
COC(=O)CN1Cc2ccc(N3CC[C@@H](Oc4ccc(OCC5CC5)nc4)C3=O)cc2C1=O [Example 1-40, methyl 2-[6-[(3R)-3-[[6-(cyclopropylmethoxy)-3-pyridyl]oxy]-2-oxo-pyrrolidin-1-yl]-1-oxo-isoindolin-2-yl]acetate] | 44 nM
CN(C)C(=O)CN1Cc2ccc(N3CC[C@@H](Oc4ccc(O[C@@H]5C[C@@H]6C[C@@H]6C5)nc4)C3=O)cc2C1=O [Example 2-18, 2-[6-[(3R)-3-[[6-[[(1S,5R)-3-bicyclo[3.1.0]hexanyl]oxy]-3-pyridyl]oxy]-2-oxo-pyrrolidin-1-yl]-1-oxo-isoindolin-2-yl]-N,N-dimethyl-acetamide] | 74 nM

Now from value to molecule:

EC50 | SMILES
197 nM | O=C(CN1Cc2ccc(N3CC[C@@H](Oc4ccc(OCC5CC5)nc4)C3=O)cc2C1=O)N1CC(O)C1 [Example 4-04, 6-[(3R)-3-[[6-(cyclopropylmethoxy)-3-pyridyl]oxy]-2-oxo-pyrrolidin-1-yl]-2-[2-(3-hydroxyazetidin-1-yl)-2-oxo-ethyl]isoindolin-1-one]
77 nM | CN(C)C(=O)CN1Cc2c(F)cc(N3CC[C@@H](Oc4ccc(OCC(F)(F)F)nc4)C3=O)cc2C1=O [Example 6-01, 2-[4-fluoro-1-oxo-6-[(3R)-2-oxo-3-[[6-(2,2,2-trifluoroethoxy)-3-pyridyl]oxy]pyrrolidin-1-yl]isoindolin-2-yl]-N,N-dimethyl-acetamide]
749 nM | O=C(CN1Cc2ccc(N3CC[C@@H](Oc4ccc(OCC5CC5)nc4)C3=O)cc2C1=O)NCc1nnn[nH]1 [Example 4-30, 2-[6-[(3R)-3-[[6-(cyclopropylmethoxy)-3-pyridyl]oxy]-2-oxo-pyrrolidin-1-yl]-1-oxo-isoindolin-2-yl]-N-(1H-tetrazol-5-ylmethyl)acetamide]
2530 nM | CC1(CN2Cc3c(F)cc(N4CC[C@@H](Oc5ccc(OCCC6CC6)nc5)C4=O)cc3C2=O)COC1 [Example 5-03, 6-[(3R)-3-[[6-(2-cyclopropylethoxy)-3-pyridyl]oxy]-2-oxo-pyrrolidin-1-yl]-4-fluoro-2-[(3-methyloxetan-3-yl)methyl]isoindolin-1-one]
157 nM | O=C(CN1Cc2c(F)cc(N3CC[C@@H](Oc4ccc(OCCC5CC5)nc4)C3=O)cc2C1=O)NCCO [Example 4-29, 2-[6-[(3R)-3-[[6-(2-cyclopropylethoxy)-3-pyridyl]oxy]-2-oxo-pyrrolidin-1-yl]-4-fluoro-1-oxo-isoindolin-2-yl]-N-(2-hydroxyethyl)acetamide]
271 nM | CCOc1ccc(O[C@@H]2CCN(c3cc(F)c4c(c3)C(=O)N(CC(N)=O)C4)C2=O)cn1 [Example 4-16, 2-[6-[(3R)-3-[(6-ethoxy-3-pyridyl)oxy]-2-oxo-pyrrolidin-1-yl]-4-fluoro-1-oxo-isoindolin-2-yl]acetamide]
163 nM | NC(=O)CN1Cc2ccc(N3CC[C@@H](Oc4ccc(OCC5CC5)nc4)C3=O)cc2C1=O [Example 4-07, 2-[6-[(3R)-3-[[6-(cyclopropylmethoxy)-3-pyridyl]oxy]-2-oxo-pyrrolidin-1-yl]-1-oxo-isoindolin-2-yl]acetamide]
88 nM | O=C(CN1Cc2c(F)cc(N3CC[C@@H](Oc4ccc(OCC5CC5)nc4)C3=O)cc2C1=O)N1CCC(O)CC1 [Example 4-22, 6-[(3R)-3-[[6-(cyclopropylmethoxy)-3-pyridyl]oxy]-2-oxo-pyrrolidin-1-yl]-4-fluoro-2-[2-(4-hydroxy-1-piperidyl)-2-oxo-ethyl]isoindolin-1-one]
609 nM | O=C1c2cc(N3CC[C@@H](Oc4ccc(OCCC5CC5)nc4)C3=O)cc(F)c2CN1CCCO [Example 5-06, 6-[(3R)-3-[[6-(2-cyclopropylethoxy)-3-pyridyl]oxy]-2-oxo-pyrrolidin-1-yl]-4-fluoro-2-(3-hydroxypropyl)isoindolin-1-one]
